Values of other authors, collected in patent publication US5516904A, “Acetylenes disubstituted with a heteroaromatic group and a substituted phenyl group having retinoid like activity” (Allergan, Inc., priority 1995, dated 1996).

System: ornithine decarboxylase (ODC)
Conditions: result in words; literature background

Structure (SMILES): CC1=C(/C=C/C(C)=C/C=C/C(C)=C/C(=O)O)C(C)(C)CCC1 [Retionic acid, retinoic acid]
- inhibition of induction of ODC activity by TPA: inhibits
